Here are results for two compounds from publication PMC7876106 (Scientific Reports, 2021).

Assay [1] deals with TERRA antisense (5'-fluorescein) (RNA, single strand) CCCUAACCCUAACCCUAACCCUAA
Briefly: fluorescence polarization. To be noted: 150 mM salt (KCl, NaCl or LiCl; which not stated); 20 mM HEPES pH 7.5, room temperature, tRNA competitor; dilutions from 50 μM compound.

Assay [2] deals with telomere repeat DNA in LOX cells. Briefly: Telomere length analysis (PFGE, Southern blot) of LOX cells. The assay is classed as cell-based, human. The settings on record: for telomere repeat DNA signals: TLA. The method, then: Genomic DNA was isolated from cells using a genomic DNA purification kit (Promega) and digested with AluI and MboI. Digested genomic DNA was purified by phenol/choloroform extraction and quantified using a Qubit 4 Fluorometer (Thermal Scientific). Equal amounts of digested DNA (5 μg) were separated by pulse-field gel electrophoresis (PFGE) performed with a 1% agarose gel at 6V/cm, switch times from 1 to 12s, 15 °C for 12h using CHEF-DRIII system (Bio-Rad). The DNA was transferred to GeneScreen Plus blotting membranes (Perkin-Elmer) and analyzed by Southern blot. The blots were hybridized with a 32P-labeled telomere repeat or […]
Alu probe at 42 °C overnight, then washed twice for 5 min each with 0.2 M wash buffer (0.2 M Na2HPO4 pH 7.2, 1 mM EDTA, and 2% SDS) at room temperature and once for 10 min with 0.1 M wash buffer at 42°C. Relative telomere-repeat signals were determined by Typhoon 9410 Imager and ImageQuant TL software (GE Healthcare). Signal intensity represents the percentage decrease of average telomere signals relative to dox (-) or PP control. […]
100, 1 mM EDTA in 1x PBS) before immuno-staining. Primary antibodies were prepared in blocking solution at following dilutions: anti-53BP1 (1:500, IHC-00001; Bethyl Laboratories) and γH2AX (1:2,000, A300-081A; Bethyl Laboratories). After IF, cells were fixed in 4% paraformaldehyde in 1x PBS for 10 min, washed in 1x PBS, dehydrated in ethanol series (70%, 95%, 100%), and air-dried. Coverslips were denatured for 5 min at 80-85° C in hybridization mix [70% formamide, 10 mM Tris-HCl, pH 7.2, and 0.5% blocking solution (Roche)] containing telomeric PNA-Cy3-(CCCTAA)3 probe, and hybridization was continued for 2 hrs at room temperature in the dark moisturized chambers. Coverslips were washed twice for 15 min each with 70% formamide, 10 mM Tris-HCl (pH 7.2), and 0.1% BSA, and followed by three washes for 5 min each with 0.15 M NaCl, 0.1 M Tris-HCl (pH 7.2), and 0.08% Tween-20. Nuclei were counterstained with 0.1 µg/ml DAPI in blocking solution and coverslips mounted with VectorShield (Vector Laboratories). RNA FISH was performed as previously described 1.
Images were captured with a 100x lens on a Nikon E600 Upright microscope (Nikon

In another assay the test system is LOX cells. Briefly: Metaphase telomere FISH in LOX cells. The settings on record: 2 μM, 3 days. The assay is classed as cell-based, human. The method, then:
Mei et al, 2020 TERRA Requires TRF2 GAR Domain
Instruments, Inc., Melville, NY) with ImagePro Plus software (Media Cybernetics, Silver Spring, MD) for image processing. Cells with > 5 53BP1/γH2AX foci co-localizing with telomere DNA foci were scored as positive for TIF. The quantification was generated from at least three independent Immuno-FISH experiments.
FISH analysis on metaphase spreads was performed as previously described 5. Briefly, LOX cells were treated with indicated chemicals (2 µM) for 3 days in a 37 °C CO2 incubator. LOX TRF2∆B cells were cultured in the absence (-) or presence (+) of 1 µg/ml doxycycline for 20 days in 37 °C incubator. Colcemid (0.1 mg/ml; GIBCO) was then added to cells and incubated for 4 hrs to accumulate mitotic cells. Cells were collected by trypsinization and suspended in 75 mM KCl hypotonic solution at 37 °C for 25 min before fixation in fresh 3:1 methanol/acetic acid for 4-5 times. Fixed cells were dropped onto cold, wet glass microscope slides and allowed to dry slowly in a humid environment. Metaphase chromosome spreads were fixed in 4% paraformaldehyde in 1x PBS for 3 min, dehydrated in ethanol series [70%, 95%,100% (vol/vol)], and air-dried. Slides were denatured for 5 min at 81 °C in hybridization mix [70% (vol/vol) formamide, 10 mM Tris·HCl (pH 7.2), and 0.5% blocking solution (Roche)] containing telomeric PNA-Cy3-(CCCTAA)3 probe (PNA Bio). […]

The subject of assay [3] is TRF2 binding to telomere DNA. Briefly: DNA ChIP assay of TRF2 binding to telomere DNA in LOX cells. The format is cell-based, human. The settings on record: 2 μM, 2 days. The method, then: The lysates were sonicated, cleared by centrifugation, and supernatants were diluted 10 fold into IP Buffer (0.01% SDS, 1.1% Triton X-100, 1.2mM EDTA, 16.7mM Tris pH 8.1, 167mM NaCl, protease inhibitors cocktail, 50U/ml SUPERase•in) for IP reaction with rabbit IgG (Santa Cruz Biotechnology) or rabbit polyclonal anti-TRF2 (Pocono Rabbit Farm) at 4 ° C overnight. Each immune complex was collected by Dynal A beads (Invitrogen), washed five times (1 ml wash, 10 mins each) in ChIP related wash buffer at 4 ° C, eluted by addition of 200µl Elution buffer (10mM Tris, pH 8.0, 5mM EDTA, 1% SDS, 50U/ml SUPERase.In) at 70 °C for 20 mins, and the elutes were placed at 70 °C for 2 hrs to reverse cross-linking. […]
DNA ChIP assays was performed as described previously 3 with minor modifications. Briefly, 1 x 10^7 LOX cells treated with indicated chemicals (2 µM) for 48 hrs were subject to ChIP analysis and immunoprecipitated DNA was assayed by DNA dot-blot using 32P-labeled (TTAGGG)4 or Alu probe. […]

Structures are written as SMILES.

Take `CN(C)c1ccc(Nc2c3ccc(NC(=O)CCN4CCCC4)cc3nc3cc(NC(=O)CCN4CCCC4)ccc23)cc1` [BRACO-19]: the binding result in assay [1] was “no”. For the same compound, the “telomere repeat DNA signals” value in assay [2] was “to a lesser extent”. Also, the “frequency of telomere aberrations incl. fragile telomere doublets” value with LOX cells is reported as “increased the frequency of telomere aberrations”. Further, the “effect on TRF2 binding to telomere DNA” value in assay [3] is recorded as “Neither NMM, PP, nor BRACO-19 had any significant effect”.
Consider `CCc1c(C)c2cc3nc(cc4nc(cc5c(CC)c(C)c(cc1[nH]2)n5C)C(C)=C4CCC(=O)O)C(CCC(=O)O)=C3C` [NMM, N-methyl mesoporphyrin IX], for which, in assay [1], the binding entry is “no”. Moreover, in assay [2] (2 μM, 2 and 3 days), the average telomere length result was “decrease in average telomere length”. For the same compound, the “telomere repeat DNA signals” value in assay [2] is recorded as “reduced telomere repeat DNA signals”. Also, in the assay on LOX cells, the “frequency of telomere aberrations incl. fragile telomere doublets” value was “increased the frequency of telomere aberrations”. Further, the “effect on TRF2 binding to telomere DNA” value in assay [3] is recorded as “Neither NMM, PP, nor BRACO-19 had any significant effect”.
